Experimental data published in patent US20160287540A1, “Increasing Cancer Patient Survival Time by Administration of Dithio-Containing Compounds” (BioNumerik Pharmaceuticals, Inc., priority 2015, published 2016).
Entries after “also recorded” stand apart in the source; their conditions may differ. Like-named read-outs stand apart in the source and are kept apart here.

Assays:
[1] = system: mammalian thioredoxin reductase (TXR); conditions: cited from earlier work
[2] = target: T1, glutathione reductase (GR) (Homo sapiens, UniProt P00390); conditions: cited from earlier work
T1 sequence (P00390 44-522): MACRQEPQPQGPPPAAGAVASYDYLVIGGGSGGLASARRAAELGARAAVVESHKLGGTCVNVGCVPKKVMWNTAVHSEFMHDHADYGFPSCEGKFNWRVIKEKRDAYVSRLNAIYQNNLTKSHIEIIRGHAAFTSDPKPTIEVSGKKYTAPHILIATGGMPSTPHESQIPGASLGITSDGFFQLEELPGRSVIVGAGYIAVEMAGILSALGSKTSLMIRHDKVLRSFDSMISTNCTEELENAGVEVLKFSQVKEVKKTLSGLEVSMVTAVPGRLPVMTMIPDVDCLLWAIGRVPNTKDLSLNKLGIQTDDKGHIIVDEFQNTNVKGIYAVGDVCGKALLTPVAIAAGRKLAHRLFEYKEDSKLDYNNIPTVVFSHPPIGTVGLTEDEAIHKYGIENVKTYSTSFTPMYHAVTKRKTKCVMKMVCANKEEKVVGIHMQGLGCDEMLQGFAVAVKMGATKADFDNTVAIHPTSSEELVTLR

[3] = system: coupled thioredoxin (TX)/thioredoxin reductase (TXR)/NADPH system; assay type: biochemical, bovine
Method: (§1) Biochemistry 21:6628-6633 (1982).
(§2) Data was then collected and plotted in Microsoft Excel. Error calculations, and graphical representations were performed in Microsoft Excel and Kaleidograph (ver. 3.5). Nonlinear data was graphically rendered using Kaleidograph. ANOVA and other statistical analyses were performed using SAS (ver. 8.2). Unless otherwise noted, significance level was set at 0.05, and error bars represent actual experimental standard deviation.
Table5, below, illustrates that various Formula (I) compounds (i.e., disulfide-containing compounds) of the present invention can serve as alternate substrate inhibitors for the coupled thioredoxin (TX)/thioredoxin reductase (TXR)/NADPH system as measured by the oxidation of NADPH. In Table5, the Formula (I) compounds were utilized at a concentration of 0.5 mM.

[4] = target: T1, glutathione reductase (GR); assay: NADPH oxidation by glutathione reductase, without or with GSH; assay type: biochemical
Method: (§3) Table 4, below, illustrates that various Formula (I) compounds (i.e., dithiol-containing compounds) may act as alternative substrate inhibitors for the coupled GRX/GSH/GR system as measured by NADPH oxidation. The Formula (I) compound was utilized at a concentration of 0.5 mM.

[5] = system: whole cells (reduction of TX/TXR and GRX substrates); assay: Whole cell mediated disulfide reduction; assay type: cell-based; conditions: mesna in combination with cisplatin
brain cancer cells = assay: Cytotoxicity in brain cancer cells; assay type: cell-based, human; conditions: oxaliplatin and mesna; observable but not statistically significant
[6] = system: ovarian cancer cell lines; assay: Cytotoxicity in ovarian cancer cell lines; assay type: cell-based, human; conditions: mesna (100 μM) in combination with oxaliplatin vs oxaliplatin alone controls
[7] = system: non-small cell lung carcinoma (NSCLC) cell lines; assay: Cytotoxicity in NSCLC cell lines; assay type: cell-based, human
[8] = target: T2, coupled glutaredoxin (GRX)/glutathione (GSH)/glutathione reductase (GR) system (Homo sapiens, UniProt P35754); assay: NADPH oxidation by coupled GRX/GSH/GR system; assay type: biochemical; conditions: in the presence of reduced glutathione and glutathione reductase
T2 sequence (P35754 1-106): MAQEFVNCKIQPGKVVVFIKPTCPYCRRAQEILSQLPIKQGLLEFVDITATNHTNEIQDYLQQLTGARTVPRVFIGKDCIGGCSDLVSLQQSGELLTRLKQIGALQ
Method: as §3

[9] = system: patients with advanced, Stage IIIB/IV, non-small cell lung carcinoma (NSCLC), including the adenocarcinoma sub-type; assay: U.S. Phase II NSCLC Clinical Trial (dose-dense docetaxel/cisplatin with or without Tavocept™); assay type: in vivo, human; conditions: Tavocept™ arm vs non-Tavocept™ arm
From the text: As utilized herein, the term “clinical trial” or “trial”, refers to: • (i) the Japan Phase III Clinical Trial disclosed in the present invention which was utilized to show the ability of Tavocept™ (also referred to in the literature as disodium 2,2′-dithio-bis-ethane sulfonate, dimesna, or BNP7787) to prevent and/or reduce peripheral neuropathy induced by paclitaxel/cisplatin combination therapy. The incidence and severity of adverse reactions, time to their onset, etc. and the like, were compared between patients treated with Tavocept™ and those given a placebo using Quality of Life (QOL) questionnaires (i.e., Peripheral Neuropathy Questionnaire (PNQ©) and CIPN-20)) and the National Cancer Institute-Common Toxicity Criteria (NCI-CTC). The effects of Tavocept™ on the Quality of Life (QOL) of patients under anticancer treatment were also evaluated using the QOL questionnaire, EORTC QLQ-C30. Whether or not Tavocept™ would affect the efficacy of paclitaxel/cisplatin combination therapy was also evaluated based on the response rate, aggravation-free survival period, and total survival period. […] Whether or not Tavocept™ would affect the efficacy of the dose-dense docetaxel/cisplatin combination therapy was also evaluated based on the response rate, aggravation-free survival period, and total survival period. […]

[10] = target: T3, thioredoxin reductase (TXR) (Bos taurus, UniProt O62768); assay: NADPH oxidation by thioredoxin reductase only; assay type: biochemical; conditions: listed as Tavocept™
T3 sequence (O62768 1-499): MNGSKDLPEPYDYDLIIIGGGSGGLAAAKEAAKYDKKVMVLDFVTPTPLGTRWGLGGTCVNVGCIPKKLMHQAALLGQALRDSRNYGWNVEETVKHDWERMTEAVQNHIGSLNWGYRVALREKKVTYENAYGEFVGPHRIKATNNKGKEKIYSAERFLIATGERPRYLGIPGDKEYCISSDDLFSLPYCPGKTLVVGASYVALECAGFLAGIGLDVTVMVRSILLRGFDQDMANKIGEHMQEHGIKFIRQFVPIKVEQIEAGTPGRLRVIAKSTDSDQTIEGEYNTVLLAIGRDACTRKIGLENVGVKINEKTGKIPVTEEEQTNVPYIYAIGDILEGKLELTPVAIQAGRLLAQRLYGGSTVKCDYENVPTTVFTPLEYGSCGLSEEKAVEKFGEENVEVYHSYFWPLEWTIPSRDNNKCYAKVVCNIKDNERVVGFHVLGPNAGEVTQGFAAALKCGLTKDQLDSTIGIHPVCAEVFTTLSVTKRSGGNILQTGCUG
Method: as §1, §2

In the case of `O=NN(CCCl)C(=O)NCCCl` [carmustine], the “inhibition of TXR (in words)” value ([1]; literature studies) is given as “can inhibit both GR and TXR” and the “inhibition of GR (in words)” value ([2]; literature studies) is given as “can inhibit both GR and TXR”.

With `NC(CCSSCCS(=O)(=O)O)C(=O)O` (stereo not drawn) [BNP7768] the “substrate activity / NADPH oxidation by TXR in the presence of TX (in words)” value (from here on “substrate activity / NADPH oxidation”) [3] was “substrates”.

In the case of `O=P1(NCCCl)OCCCN1CCCl` (stereo not drawn) [ifosfamide], the “inhibition of TXR (in words)” value ([1]; literature studies) is given as “inhibited TXR”.

In the case of `N[C@@H](CCC(=O)N[C@@H](CSSCCS(=O)(=O)O)C(=O)NCC(=O)O)C(=O)O` [BNP7772], the “substrate activity for glutathione reductase (in words)” value [4] is reported as “functions as an alternative substrate inhibitor” and the “substrate activity / NADPH oxidation” value [3] is reported as “substrates”.

In the case of `CS(=O)(=O)OCCCCOS(C)(=O)=O` [busulfan], the “inhibition of TXR (in words)” value ([1]; literature studies) is listed as “irreversibly inhibited TXR in a concentration- and time-dependent manner” and the “inhibition of GR (in words)” value ([2]; literature studies) is listed as “not GR”.

For `O=C(O)CCCc1ccc(N(CCCl)CCCl)cc1` [chlorambucil], the “inhibition of TXR (in words)” value ([1]; literature studies) is given as “irreversibly inhibited TXR in a concentration- and time-dependent manner” and the “inhibition of GR (in words)” value ([2]; literature studies) is given as “not GR”.

For `NC(CSSCCS(=O)(=O)O)C(=O)O` (stereo not drawn) [BNP7766], the “substrate activity / NADPH oxidation” value [3] was “substrates”.

For `O=S(=O)(O)CCS` [mesna, sodium-2-mercaptoethane sulfonate], the “reduction of α-lipoic acid (TX/TXR substrate) or hydroxyethyldisulfide (GRX substrate) by whole cells” value [5] was “enhanced the reduction”, the oxaliplatin cytotoxicity (brain cancer cells) was “lesser increase in oxaliplatin cytotoxicity” and the “cytotoxic effect of oxaliplatin” value [6] was “markedly enhanced the cytotoxic effect”. For the same compound, the “cytotoxic effect of oxaliplatin” value ([7]; mesna (100 μM) in combination with oxaliplatin vs oxaliplatin alone controls, NSCLC) was “markedly enhanced the cytotoxic effect” and the “cytotoxic effect of paclitaxel” value ([7]; mesna (100 μM) in combination with paclitaxel vs paclitaxel alone controls) was “enhanced the cytotoxic effect”.

In the case of `N[C@@H](Cc1ccc(N(CCCl)CCCl)cc1)C(=O)O` [melphalan], the “inhibition of TXR (in words)” value ([1]; literature studies) is given as “irreversibly inhibited TXR in a concentration- and time-dependent manner” and the “inhibition of GR (in words)” value ([2]; literature studies) is given as “not GR”.

With `N[C@@H](CSSCCS(=O)(=O)O)C(=O)NCC(=O)O` [BNP7776] the “substrate activity / NADPH oxidation” value [3] was “substrates”.

For `N.N.[Cl][Pt+2][Cl]` [transplatin], the “inhibition of TXR (in words)” value ([1]; literature studies) is given as “irreversibly inhibited TXR” and the “inhibition of GR (in words)” value ([2]; literature studies) is given as “not GR”.

In the case of `O=P1(N(CCCl)CCCl)NCCCO1` (stereo not drawn) [cyclophosphamide], the “inhibition of TXR (in words)” value ([1]; literature studies) is given as “irreversibly inhibited TXR in a concentration- and time-dependent manner” and the “inhibition of GR (in words)” value ([2]; literature studies) is given as “not GR”.

In the case of `N.N.[Cl][Pt][Cl]` [cisplatin, cis-diamminedichloroplatinum], the “inhibition of TXR (in words)” value ([1]; literature studies) is listed as “irreversibly inhibited TXR” and the “inhibition of GR (in words)” value ([2]; literature studies) is listed as “not GR”.

In the case of `N.N.O.[Cl][Pt+]` [monohydrated complex], the “inhibition of TXR (in words)” value ([1]; literature studies) is given as “irreversibly inhibited TXR” and the “inhibition of GR (in words)” value ([2]; literature studies) is given as “not GR”.

In the case of `O=S(=O)([O-])CCSSCCS(=O)(=O)[O-].[Na+].[Na+]` [BNP7787, disodium 2,2′-dithio-bis-ethane sulfonate], the “substrate activity for glutathione reductase (in words)” value [4] is reported as “not a substrate for glutathione reductase”, the “activity with glutaredoxin (in words)” value [8] is reported as “substrate-like activity” and the “increase in patient (median) survival, adenocarcinoma” value ([9]; listed as Tavocept) is reported as about 6.5 month. For the same compound, the “increase in patient (median) survival, adenocarcinoma” value ([9]; listed as Tavocept™) was 6.54 month and the “NADPH oxidation / substrate activity with thioredoxin reductase alone, absence of TX (in words)” value [10] was “indistinguishable from background; also recorded: not thioredoxin reductase alone”.

In the case of `N.N.O=C([O-])C1(C(=O)[O-])CCC1.[Pt+2]` [carboplatin], the “inhibition of TXR (in words)” value ([1]; literature studies) is listed as “could not inhibit either TXR or GR” and the “inhibition of GR (in words)” value ([2]; literature studies) is listed as “could not inhibit either TXR or GR”.

In the case of `O=C1[O][Pt]2([NH][C@@H]3CCCC[C@H]3[NH]2)[O]C1=O` [oxaliplatin], the “inhibition of TXR (in words)” value [1] is listed as “irreversibly inhibited TXR” and the “inhibition of GR (in words)” value [2] is listed as “not GR”.
